This is an account of results in patent US20230407296A1, “Method to Regulate ALOX12-AS1 IncRNA-Mediated Alteration of ALOX12 Protein and to Screen for Novel Drugs to Alter ALOX12 Protein Level” (priority 2021, published 2023).

Assay [1] deals with ALOX12 protein level in THP-1 cells. The experiment in a line: ALOX12 protein level in TPA-treated THP-1 cells (immunoblot). Format: cell-based, human. As for the experimental part: Phorbol ester (12-O-Tetradecanoylphorbol 13-acetate: TPA) is an activator of protein kinase C (PKC) that has been frequently used for inducing the differentiation of different cell types, including myeloid cells. Activation of human monocytic cells affects ALOX expression. Therefore, we induced differentiation of monocytic THP-1 cells to macrophage-like cells (MLCs) with 100 nM TPA [91, 92] and monitored the ALOX12 protein level as well as nucleo-cytoplasmic translocation of ALOX12-AS1-201. […] We concurrently monitored expression of the integrin subunit a M (ITGAM), also known as CD11b, which regulates myeloid cell polarization and is expressed in macrophages to facilitate adhesion, migration, chemotaxis, and accumulation during inflammation. […] CD68 is a transmembrane glycoprotein that is mainly located in the endosomal/lysosomal compartment but can rapidly shuttle to the cell surface in myeloid cells. […] Based on these observations, we performed nuclear and cytoplasmic fractionation at 72 hours of TPA treatment.
Relative quantification of proteins was performed as described previously. […] The immunoblots were imaged using a ChemiDoc XRS+ system (Bio-Rad) and band intensities were quantified using ImageJ (version 1.48) Software. […]
Background: In western blotting, separated proteins are transferred to a membrane and probed.

In another assay the test system is ALOX12-AS1-201 lncRNA. Nature of the assay: Nucleo-cytoplasmic translocation of ALOX12-AS1-201 in HEK293 cells (FISH, fractionation, quantitative RT-PCR). Format: cell-based, human. Particulars: 10 μM TPA, 1 hour. As for the experimental part: Phorbol ester (12-O-Tetradecanoylphorbol 13-acetate: TPA) is an activator of protein kinase C (PKC) that has been frequently used for inducing differentiation in different cell types including myeloid cells. […] Therefore, we treated HEK293 cells with 10 μM TPA for 1 hour and observed ALOX12-AS1-201 nucleo-cytoplasmic translocation as well as measured ALOX12 protein level.
Total RNA from different cell lines was extracted with Trizol reagent (Catalog number: 15596026; ThermoFisher Scientific, Canada) as per the manufacturer's recommended protocol. […] Absolute quantification of ALOX12-AS1 lncRNA isoforms was performed in a Mastercycler®ep realplex real-time PCR system (Eppendorf, Hamburg, Germany) using SYBR green dye (Catalog number: S7563; ThermoFisher Scientific). […] Real-time PCR data quality control calculations were determined by the SAS program as described previously and the calculated PCR efficiency was between 95%-99%. Quantitative RT-PCR was conducted for different cell-line derived RNAs, and the specificity of each amplified product was confirmed by melting curve analysis. Results were expressed as copy number of specific isoforms per 100 ng of total RNA.
For RNA-FISH, cells were grown on coverslips and human tissue cryosections were adhered to glass slides. […] The cells were then fixed and analyzed by RNA-FISH. […]

In the case of `CCCCCCCCCCCCCC(=O)O[C@@H]1[C@@H](C)[C@@]2(O)[C@@H](C=C(CO)C[C@]3(O)C(=O)C(C)=C[C@@H]23)[C@@H]2C(C)(C)[C@]12OC(C)=O` [TPA, 12-O-Tetradecanoylphorbol 13-acetate], the ALOX12 protein levels entry in assay [1] (THP-1 cells, 100 nM TPA, treatment period 1-72 h, immunoblot) was “dramatically reduced”; in assay [1] (TPA-differentiated MLCs, 100 nM, 72 hours, vs vehicle (DMSO) treated THP-1 cells), “concomitant decrease”. Besides, the ALOX12-AS1-201 nucleo-cytoplasmic translocation result with ALOX12-AS1-201 lncRNA (FISH, vs vehicle (DMSO)) is “dramatic nucleo-cytoplasmic translocation”. Further, the “cytosolic ALOX12-AS1-201 lncRNA abundance” value in the assay with ALOX12-AS1-201 lncRNA (subcellular fractionation and quantitative RT-PCR) was “significant increase”.
